These results are taken from patent US9845319B2, “Amide substituted thiazoles as modulators of RORyt” (Janssen Pharmaceutica NV, priority 2014, dated 2017).

In general, IC50 refers to the concentration at which inhibition is half-maximal. As usually defined, the Kd is the concentration at which binding is half-saturated. By inhibition is commonly meant the drop in the measured response relative to a control, in per cent.

The test system of assay [1] is IL-17 production by CD4 T cells. Put plainly: Human Th17 Assay. It is filed as cell-based. To be noted: 72 h; IL-17 in supernatant, 3 days, human CD4+ T cells; read-out: Human Th17 Assay, IC50. The method, then: The human Th17 assay tests the effect of RORγt modulatory compounds on IL-17 production by CD4 T cells under conditions which favor Th17 differentiation. Total CD4^+ T cells were isolated from the peripheral blood mononuclear cells (PBMC) of healthy donors using a CD4^+ T cell isolation kit II, following the manufacturer's instructions (Miltenyi Biotec). […] 50 μL of compound at titrated concentrations in DMSO were added into each well at final DMSO concentration at 0.2%. Cells were incubated for 1 hour, then 50 μL of Th17 cell differentiation medium was added to each well. The final concentrations of antibodies and cytokines (R&D Systems) in differentiation medium were: 3×10^6/mL anti-CD3/CD28 beads (prepared using human T cell activation/expansion kit, Miltenyi Biotec), 10 μg/mL anti-IL4, 10 μg/mL anti-IFNγ, 10 ng/mL IL1β, 10 ng/mL IL23, 50 ng/mL IL6, 3 ng/mL TGFβ and 20 U/mL IL2. Cells were cultured at 37° C. and 5% CO2 for 3 days. Supernatants were collected and the accumulated IL-17 in culture was measured by using MULTI-SPOT® Cytokine Plate following manufacture's instruction (Meso Scale Discovery). The plate was read using Sector Imager 6000, and IL-17 concentration was extrapolated from the standard curve. The IC50s were determined by GraphPad.

Assay [2] has as its target T1, human RORγt ligand binding domain (RORγt LBD) (Homo sapiens, UniProt P51449).
T1 construct: His-tag (N); TurboTEV protease cleavage site (ENLYFQG) (N); made in house; host or cells: E. coli (pHIS1, a modified pET expression vector)
T1 sequence (P51449 with tags, fused parts or gaps): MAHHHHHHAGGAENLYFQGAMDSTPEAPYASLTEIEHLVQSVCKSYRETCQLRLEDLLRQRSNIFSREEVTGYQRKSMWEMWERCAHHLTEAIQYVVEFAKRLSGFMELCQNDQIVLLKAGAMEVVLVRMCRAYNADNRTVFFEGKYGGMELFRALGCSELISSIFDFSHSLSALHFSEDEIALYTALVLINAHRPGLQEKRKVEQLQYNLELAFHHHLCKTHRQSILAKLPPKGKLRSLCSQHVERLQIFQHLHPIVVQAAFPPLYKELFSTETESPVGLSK
Put plainly: RORγt ThermoFluor assay. To be noted: estimated from thermal shift concentration response. The method, boiled down:
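Thermal shift of RORγt LBD (0.065 mg/mL) with 60 μM 1,8-ANS in 100 mM Hepes pH 7.0, NaCl, GSH, 0.002% Tween-20, heated at 1° C/min. ANS fluorescence tracked versus temperature; ΔTm relative to DMSO wells. Compounds serially diluted 1:2 from 10 mM DMSO stock.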

The target of assay [3] is T2, full-length human RORγt (Homo sapiens, UniProt P51449).
T2 construct: expressed in transfected cells; host or cells: HEK293T, transiently transfected with pCMV-BD-ROR
T2 sequence (P51449 1-497 isoform P51449-2): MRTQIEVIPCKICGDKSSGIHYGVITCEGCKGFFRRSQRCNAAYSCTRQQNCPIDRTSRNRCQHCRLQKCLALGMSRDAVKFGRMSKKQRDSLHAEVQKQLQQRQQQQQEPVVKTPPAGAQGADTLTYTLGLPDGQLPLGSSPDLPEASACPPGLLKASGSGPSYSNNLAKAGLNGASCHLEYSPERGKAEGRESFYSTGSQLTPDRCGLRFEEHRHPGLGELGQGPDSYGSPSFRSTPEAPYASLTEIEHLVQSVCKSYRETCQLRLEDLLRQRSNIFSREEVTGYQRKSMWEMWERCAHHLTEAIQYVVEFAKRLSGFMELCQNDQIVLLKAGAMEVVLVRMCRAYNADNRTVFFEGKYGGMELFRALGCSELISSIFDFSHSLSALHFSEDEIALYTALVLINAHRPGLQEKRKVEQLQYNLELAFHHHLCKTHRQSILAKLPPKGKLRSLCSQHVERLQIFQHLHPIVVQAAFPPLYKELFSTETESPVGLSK
Briefly: RORγt (full-length human) Reporter Assay, Conditions A. To be noted: for IC50: HEK293T cells, GAL4-DBD-RORγt, luciferase, read-out: RORγt (FL) Reporter Assay A, IC50; for inhibition at 6 µM: read-out: RORγt (FL) Reporter Assay A, % inhibition @ 6 μM, 6 μM compound. It is filed as cell-based. In short, it runs like this:
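Reporter cells lysed after 16–20 h compound exposure; firefly and Renilla luciferase luminescence measured. Firefly signal normalised to DMSO and saturating reference compound, then to Renilla; IC50 from normalised data versus concentration, percent inhibition relative to DMSO.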
For orientation: Reporter assays use an easily measured gene product as a stand-in for the process of interest.

The target in assay [4] is T2, full-length human RORγt. Briefly: RORγt (full-length human) Reporter Assay, Conditions B or C. It is filed as cell-based. The method, then:
HEK293T cells were plated at 35,000 per well in 96-well plate in medium of DMEM with 10% FBS. […] After overnight (16 to 20 hours) incubation, media were removed and cells were lysed with 50 μL Glo Lysis Buffer (Promega) for 10-15 minutes followed by 10 minute incubation with 50 uL Dual Glo reagent (Promega) at room temperature. Firefly luciferase luminescence was measured using a BMG Pherastar plate reader. To each well, 50 uL Stop and Glo reagent was added and incubated for 10 minutes at room temperature. Renilla luminescence was measured using a BMG Pherastar plate reader. To calculate the effect of compounds on RORγt activity, firefly values were normalized against values of DMSO only and values of reference compound at saturating concentration, then further normalized against Renilla signals. IC50s were generated by plotting final Renilla normalized data against compound concentration and percent inhibition was calculated against DMSO control. […] HEK293T cells were plated at 8750 cells per well in 384-well plate in medium of DMEM with 10% FBS. […] After overnight (16 to 20 hours) incubation, media were removed and cells were lysed with 20 μL Glo Lysis Buffer (Promega) for 10-15 minutes followed by 10 minute incubation with 20 uL Dual Glo reagent (Promega) at room temperature. Firefly luciferase luminescence was measured using a BMG Pherastar plate reader. To each well, 20 uL Stop and Glo reagent was added and incubated for 10 minutes at room temperature. Renilla luminescence was measured using a BMG Pherastar plate reader. To calculate the effect of compounds on RORγt activity, firefly values were normalized against values of DMSO only and values of reference compound at saturating concentration, then further normalized against Renilla signals. IC50s were generated by plotting final Renilla normalized data against compound concentration and percent inhibition was calculated against DMSO control.

Each structure is given as a SMILES string.

For the compound `C[C@H](NS(=O)(=O)c1ccc(-c2sc(-c3nnc(C(C)(C)O)o3)nc2C(=O)N2CCOC[C@@H]2C)c(Cl)c1Cl)C(F)(F)F` [Example 6/9, 2,3-Dichloro-4-(2-(5-(2-hydroxypropan-2-yl)-1,3,4-oxadiazol-2-yl)-4-((S)-3-methylmorpholine-4-carbonyl)thiazol-5-yl)-N—((S)-1,1,1-trifluoropropan-2-yl)benzenesulfonamide], the half-inhibitory concentration (IC50) in assay [1] turned out to be 100 nM. For the same compound, the Kd in assay [2] is 6.5 nM. Moreover, at full-length human RORγt [3], the IC50 was determined as 110 nM and the inhibition at 6 µM was determined as 108%.

For the compound `CC(C)(O)c1nnc(-c2nc(C(=O)N3CCC(F)(F)CC3)c(-c3ccc(C(O)C4(C(F)(F)F)CC4)c(Cl)c3Cl)s2)o1` (centres unmarked) [Example 8/4, (5-(2,3-Dichloro-4-(hydroxy(1-(trifluoromethyl)cyclopropyl)methyl)phenyl)-2-(5-(2-hydroxypropan-2-yl)-1,3,4-oxadiazol-2-yl)thiazol-4-yl)(4,4-difluoropiperidin-1-yl)methanone], the IC50 in assay [1] is approximately 6000 nM. Also, the Kd in assay [2] was 12 nM. In addition, on full-length human RORγt [3], the 50% inhibitory concentration (IC50) is 320 nM and the inhibition at 6 µM is 47%.

With `CC[C@H](NS(=O)(=O)c1ccc(-c2sc(-c3noc(CC(C)(C)C(=O)O)n3)nc2C(=O)N2CCC(F)(F)CC2)c(OC(F)(F)F)c1)C(F)(F)F` [Example 10/2, (S)-3-(3-(4-(4,4-Difluoropiperidine-1-carbonyl)-5-(4-(N-(1,1,1-trifluorobutan-2-yl)sulfamoyl)-2-(trifluoromethoxy)phenyl)thiazol-2-yl)-1,2,4-oxadiazol-5-yl)-2,2-dimethylpropanoic acid], in assay [1], the 50% inhibitory concentration (IC50) turned out to be 76 nM. The Kd in assay [2] was 0.04 nM. Moreover, at full-length human RORγt [3], the half-inhibitory concentration (IC50) worked out at 57 nM and the inhibition at 6 µM was 106%.

Turning to `CC[C@H](NS(=O)(=O)c1ccc(-c2sc(-c3nnn[nH]3)nc2C(=O)N2CCCC[C@@H]2C)c(Cl)c1Cl)C(F)(F)F` [Example 15, 2,3-Dichloro-4-(4-((S)-2-methylpiperidine-1-carbonyl)-2-(1H-tetrazol-5-yl)thiazol-5-yl)-N—((S)-1,1,1-trifluorobutan-2-yl)benzenesulfonamide], the IC50 turned out to be 6000 nM in assay [1] and 1900 nM at full-length human RORγt [3]. Moreover, the dissociation constant (Kd) in assay [2] was 0.64 nM. Besides, the inhibition at 6 µM at full-length human RORγt [3] turned out to be 59%.

On to `C[C@H](NS(=O)(=O)c1ccc(-c2sc(-c3cc(CC(C)(C)C(=O)O)on3)nc2C(=O)N2CCC(F)(F)CC2)c(C(F)F)c1F)C(F)(F)F` [Example 18, (S)-3-(3-(5-(2-(Difluoromethyl)-3-fluoro-4-(N-(1,1,1-trifluoropropan-2-yl)sulfamoyl)phenyl)-4-(4,4-difluoropiperidine-1-carbonyl)thiazol-2-yl)isoxazol-5-yl)-2,2-dimethylpropanoic acid], for which the IC50 in assay [1] stood at 410 nM. Also, in assay [2], the Kd is 3.7 nM. Also, at full-length human RORγt [3], the IC50 came to 350 nM and the inhibition at 6 µM was found to be 103%.

In the case of `C[C@H](NS(=O)(=O)c1ccc(-c2sc(-c3cc(CC(C)(C)C(=O)O)on3)nc2C(=O)N2CC(F)(F)C[C@@H]2C)c(C(F)F)c1F)C(F)(F)F` [Example 18/1, 3-(3-(4-((S)-4,4-Difluoro-2-methylpyrrolidine-1-carbonyl)-5-(2-(difluoromethyl)-3-fluoro-4-(N—((S)-1,1,1-trifluoropropan-2-yl)sulfamoyl)phenyl)thiazol-2-yl)isoxazol-5-yl)-2,2-dimethylpropanoic acid], in assay [1], the half-inhibitory concentration (IC50) worked out at 470 nM. The Kd in assay [2] was 5.6 nM. Besides, on full-length human RORγt [3], the IC50 is 170 nM and the inhibition at 6 µM worked out at 104%.

For `CC[C@H](NS(=O)(=O)c1ccc(-c2sc(-c3cccc(CC(C)(C)C(=O)O)n3)nc2C(=O)N2CCC(F)(F)CC2)c(C(F)F)c1F)C(F)(F)F` [Example 19, (S)-3-(6-(5-(2-(Difluoromethyl)-3-fluoro-4-(N-(1,1,1-trifluorobutan-2-yl)sulfamoyl)phenyl)-4-(4,4-difluoropiperidine-1-carbonyl)thiazol-2-yl)pyridin-2-yl)-2,2-dimethylpropanoic acid], the IC50 turned out to be 9 nM in assay [1] and 8 nM on full-length human RORγt [3]. Also, the Kd in assay [2] was 0.013 nM. Besides, the inhibition at 2 µM at full-length human RORγt [3] (read-out: RORγt (FL) Reporter Assay A, % inhibition (* at 2 μM), 2 μM compound concentration (footnote *)) turned out to be 99%.

Regarding `C[C@H](NS(=O)(=O)c1ccc(-c2sc(-c3nnc(C(C)(C)O)n3C3CC3)nc2C(=O)N2CCC(F)(F)CC2)c(Cl)c1Cl)C(F)(F)F` [Example 23, (S)-2,3-Dichloro-4-(2-(4-cyclopropyl-5-(2-hydroxypropan-2-yl)-4H-1,2,4-triazol-3-yl)-4-(4,4-difluoropiperidine-1-carbonyl)thiazol-5-yl)-N-(1,1,1-trifluoropropan-2-yl)benzenesulfonamide], the Kd in assay [2] is 3.1 nM. Moreover, the half-maximal inhibitory concentration (IC50) at full-length human RORγt [4] (HEK293T cells, GAL4-DBD-RORγt, luciferase, read-out: RORγt (FL) Reporter Assay B or C, IC50) came to 40 nM. On full-length human RORγt [4] (read-out: RORγt (FL) Reporter Assay B or C, % inhibition @ 6 μM, 6 μM compound), the inhibition at 6 µM stood at 109%.

Turning to `Cc1c(S(=O)(=O)N[C@@H](C)C(F)(F)F)ccc(-c2sc(-c3nnc(C(C)(C)O)o3)nc2C(=O)N2CCC(F)(F)CC2)c1Cl` [Example 27, 3-Chloro-4-(4-(4,4-difluoropiperidine-1-carbonyl)-2-(5-(2-hydroxypropan-2-yl)-1,3,4-oxadiazol-2-yl)thiazol-5-yl)-2-methyl-N—((S)-1,1,1-trifluoropropan-2-yl)benzenesulfonamide], the IC50 in assay [1] was determined as 9 nM. Further, in assay [2], the Kd was 0.38 nM. Also, on full-length human RORγt [3], the IC50 turned out to be 30 nM and the inhibition at 6 µM turned out to be 107%.
